The values that follow are results of earlier work, collected in patent US20080166406A1, “Rapidly Disintegrating Dosage Form Comprising Magnesium Carbonate Heavy” (priority 2005, published 2008).

The conditions of the series: water, neutral pH, acidic pH; general statement.

`Cc1cc2c(s1)Nc1ccccc1N=C2N1CCN(C)CC1` [Olanzapine]: the Solubility result was “insoluble in water and neutral pH but more soluble at acidic pH”.
